From patent publication US20250230171A1 (MOMA Therapeutics, Inc., priority 2023, published 2025)
Read-outs that look alike come from different tables or passages of the source.

Legend:
DLD1 WT cells = assay: 7-day cell viability assay (CellTiter-Glo), DLD1 parental (WT); type: cell-based, human; conditions: 7-day CellTiter-Glo, n=2
Procedure: (§1) Cell lines DLD1 WT and DLD1 BRCA2 (−/−) (Horizon Discovery Cat No. HD PAR-008 and HD-105-007) were plated in 384-well culture plates at seeding densities of 100cells/50 ul/well and 200 cells/50 uL/well respectively. The seeding densities are pre-determined from the growth curve kinetics performed to ensure log linear phase of cell growth for these 2 cell lines. These assay plates are then placed in the incubator at 37° C., 5% CO2, relative humidity >90% for a few hours before addition of test compounds. Compounds are dispensed using the Tecan HPD300 or Echo based on the plate map in the appropriate wells of the 384-well plates. The cells are treated with nine-point dose response with 3-fold serial dilutions of test compounds starting at 10 uM top concentration. After addition of the test compounds, the plates are incubated at 37° C., 5% CO2, relative humidity >90% for 7 days. CellTiter-Glo (Promega Cat. No. G7573), ATP detection reagent is prepared according to manufacturer's specifications. Cell assay plates are removed from incubator and bring to room temperature (RT) by letting them sit at bench top for at least 15 min. Using the MultiDrop liquid handler or a multichannel pipette, 35 μL/well of CTG is added and the plates are then placed shakes for 5 seconds, RT.

DLD1 BRCA2 (−/−) cells = assay: 7-day cell viability assay (CellTiter-Glo), DLD1 BRCA2 (−/−); type: cell-based, human; conditions: 7-day CellTiter-Glo, n=2, read-out: Viability IC50 (uM) DLD1 BRCA2 null
Procedure: as §1

| Compound | IC50 (DLD1 BRCA2 (−/−) cells; Homo sapiens, DLD-1, 168 h) [µM] | IC50 (DLD1 WT cells; Homo sapiens, DLD-1, 168 h) [µM] | IC50 (DLD1 WT cells) [µM] | IC50 (DLD1 BRCA2 (−/−) cells) [µM] |
| --- | --- | --- | --- | --- |
| COc1cnc(Cl)cc1-c1cc(C)ncc1C(=O)Nc1nc2c(s1)CN(C(=O)c1ccc(C#N)c(C)n1)C2 | 0.001 to 0.1 | ≥ 10 |  |  |
| COc1cnc(Cl)cc1-c1cc(C)ncc1C(=O)Nc1nc2c(s1)CN(C(=O)c1cc(Cl)c(C(F)F)cn1)C2 | 0.001 to 0.1 | 5 to 10 |  |  |
| COc1cnc(Cl)cc1-c1cc(C)ncc1C(=O)Nc1nc2c(s1)CN(Cc1cccc(C(F)F)n1)C2 | 0.001 to 0.1 | ≥ 10 |  |  |
| COc1cnc(Cl)cc1-c1cc(C)ncc1C(=O)Nc1nc2c(s1)CN(C(=O)c1nc(OC)c(Cl)nc1C)C2 | 0.001 to 0.1 | ≥ 10 |  |  |
| COc1cnc(C(F)F)cc1-c1cc(C)ncc1C(=O)Nc1nc2c(s1)CN(C(=O)c1cccc(C(F)F)n1)C2 | 0.001 to 0.1 | ≥ 10 |  |  |
| COc1cnc(Cl)cc1-c1cc(C)ncc1C(=O)Nc1nc2c(s1)CN(C(=O)c1ccc(C(F)(F)F)c(C)n1)C2 | 0.001 to 0.1 | ≥ 10 |  |  |
| COc1cnc(Cl)cc1-c1cc(C)ncc1C(=O)Nc1nc2c(s1)CN(C(=O)c1cnc(C(F)(F)F)c(C)n1)C2 | 0.001 to 0.1 | 0.5 to 2 |  |  |
| COc1cnc(Cl)cc1-c1cc(C)ncc1C(=O)Nc1nc2c(s1)CN(C(=O)c1cc(C)c(C(F)(F)F)c(C)n1)C2 | 0.001 to 0.1 | ≥ 10 |  |  |
| COc1cnc(Cl)cc1-c1cc(C)ncc1C(=O)Nc1nc2c(s1)CN(C(=O)c1cc(C)c(C(F)(F)F)nc1C)C2 | 0.001 to 0.1 | ≥ 10 |  |  |
| 2′-Chloro-5′-methoxy-6-methyl-N-(5-(3-methyl-5-(trifluoromethoxy)picolinoyl)-5,6-dihydro-4H-pyrrolo[3,4-d]thiazol-2-yl)-[4,4′-bipyridine]-3-carboxamide [Example 560] |  |  | ≥ 10 | 0.001 to 0.1 |
| 2′-Chloro-5′-methoxy-6-methyl-N-(5-(4-methyl-6-(trifluoromethoxy)nicotinoyl)-5,6-dihydro-4H-pyrrolo[3,4-d]thiazol-2-yl)-[4,4′-bipyridine]-3-carboxamide [Example 561] |  |  | ≥ 10 | 0.001 to 0.1 |
| 2′-Chloro-5′-methoxy-6-methyl-N-(5-(6-methyl-5-(trifluoromethoxy)picolinoyl)-5,6-dihydro-4H-pyrrolo[3,4-d]thiazol-2-yl)-[4,4′-bipyridine]-3-carboxamide [Example 555] |  |  | ≥ 10 | 0.001 to 0.1 |
| 2′-Chloro-N-(5-(3,5-dimethoxypyrazine-2-carbonyl)-5,6-dihydro-4H-pyrrolo[3,4-d]thiazol-2-yl)-5′-methoxy-6-methyl-[4,4′-bipyridine]-3-carboxamide [Example 413] |  |  | ≥ 10 | 0.001 to 0.1 |
| 2′-Chloro-N-(5-(5,6-dimethylpyrazine-2-carbonyl)-5,6-dihydro-4H-pyrrolo[3,4-d]thiazol-2-yl)-5′-methoxy-6-methyl-[4,4′-bipyridine]-3-carboxamide [Example 410] |  |  | ≥ 10 | 0.001 to 0.1 |
| 2′-Chloro-N-(5-(5-(difluoromethyl)-3-methoxypyrazine-2-carbonyl)-5,6-dihydro-4H-pyrrolo[3,4-d]thiazol-2-yl)-5′-methoxy-6-methyl-[4,4′-bipyridine]-3-carboxamide [Example 418] |  |  | 5 to 10 | 0.001 to 0.1 |
| 2′-Chloro-N-(5-(6-chloro-3-methylpyrazine-2-carbonyl)-5,6-dihydro-4H-pyrrolo[3,4-d]thiazol-2-yl)-5′-methoxy-6-methyl-[4,4′-bipyridine]-3-carboxamide [Example 505] |  |  | 5 to 10 | 0.001 to 0.1 |
| 2′-chloro-N-(5-(2-(difluoromethyl)pyrimidine-4-carbonyl)-5,6-dihydro-4H-pyrrolo[3,4-d]thiazol-2-yl)-5′-methoxy-6-methyl-[4,4′-bipyridine]-3-carboxamide [Example 641] |  |  | ≥ 10 | 0.001 to 0.1 |
| 2′-chloro-N-(5-(3-chloro-5-(1,1-difluoroethyl)picolinoyl)-5,6-dihydro-4H-pyrrolo[3,4-d]thiazol-2-yl)-5′-methoxy-6-methyl-[4,4′-bipyridine]-3-carboxamide [Example 625] |  |  | ≥ 10 | 0.1 to 0.25 |
| 2′-chloro-N-(5-(4-cyano-1-methyl-1H-pyrazole-5-carbonyl)-5,6-dihydro-4H-pyrrolo[3,4-d]thiazol-2-yl)-5′-methoxy-6-methyl-[4,4′-bipyridine]-3-carboxamide [Example 581] |  |  | ≥ 10 | 0.001 to 0.1 |
| 2′-chloro-N-(5-(5-chloro-2-methylisonicotinoyl)-5,6-dihydro-4H-pyrrolo[3,4-d]thiazol-2-yl)-5′-methoxy-6-methyl-[4,4′-bipyridine]-3-carboxamide [Example 519] |  |  | ≥ 10 | 0.001 to 0.1 |
| 2′-chloro-N-(5-(5-chloro-4-(difluoromethyl)pyrimidine-2-carbonyl)-5,6-dihydro-4H-pyrrolo[3,4-d]thiazol-2-yl)-5′-methoxy-6-methyl-[4,4′-bipyridine]-3-carboxamide [Example 644] |  |  | ≥ 10 | 0.1 to 0.25 |
| 2′-chloro-N-(5-(5-chloropyrimidine-2-carbonyl)-5,6-dihydro-4H-pyrrolo[3,4-d]thiazol-2-yl)-5′-(difluoromethoxy)-6-methyl-[4,4′-bipyridine]-3-carboxamide [Example 648] |  |  | ≥ 10 | 0.001 to 0.1 |
| 2′-chloro-N-(5-(6-chloro-5-fluoropicolinoyl)-5,6-dihydro-4H-pyrrolo[3,4-d]thiazol-2-yl)-5′-methoxy-6-methyl-[4,4′-bipyridine]-3-carboxamide [Example 388] |  |  | 2 to 5 | 0.001 to 0.1 |
| 4-(5-Cyano-2-methoxyphenyl)-N-(5-(3-(difluoromethyl)-4-methoxybenzoyl)-5,6-dihydro-4H-pyrrolo[3,4-d]thiazol-2-yl)-6-methylnicotinamide [Example 486] |  |  | ≥ 10 | 0.001 to 0.1 |

More lines, main results first:

| IC50 (DLD1 BRCA2 (−/−) cells; Homo sapiens, DLD-1, 168 h) [µM] | Compound | IC50 (DLD1 WT cells; Homo sapiens, DLD-1, 168 h) [µM] | IC50 (DLD1 WT cells) [µM] | IC50 (DLD1 BRCA2 (−/−) cells) [µM] |
| --- | --- | --- | --- | --- |
| 0.001 to 0.1 | COc1ccc(C(F)F)c(C(=O)N2Cc3nc(NC(=O)c4cnc(C)cc4-c4cc(Cl)ncc4OC)sc3C2)n1 | ≥ 10 |  |  |
| 0.001 to 0.1 | COc1cnc(Cl)cc1-c1cc(C)ncc1C(=O)Nc1nc2c(s1)CN(C(=O)c1nc(C)c(C(F)F)nc1C)C2 | ≥ 10 |  |  |
| 0.001 to 0.1 | COc1cnc(Cl)cc1-c1cc(C)ncc1C(=O)Nc1nc2c(s1)CN(C(=O)c1nc(OC)c(C(F)F)cc1C)C2 | ≥ 10 |  |  |
| 0.001 to 0.1 | COc1cnc(Cl)cc1-c1cc(C)ncc1C(=O)Nc1nc2c(s1)CN(C(=O)c1nc(OC)c(Cl)cc1C)C2 | 5 to 10 |  |  |
| 0.001 to 0.1 | COc1cnc(Cl)cc1-c1cc(C)ncc1C(=O)Nc1nc2c(s1)CN(C(=O)c1nc(C)c(C(F)F)cc1Cl)C2 | ≥ 10 |  |  |
| 0.001 to 0.1 | COc1cnc(Cl)cc1-c1cc(C)ncc1C(=O)Nc1nc2c(s1)CN(C(=O)c1ncc(C(F)F)c(C)n1)C2 | ≥ 10 |  |  |
| 0.001 to 0.1 | COc1cnc(Cl)cc1-c1cc(C)ncc1C(=O)Nc1nc2c(s1)CN(C(=O)c1ncc(C(F)(F)F)c(C)c1C)C2 | ≥ 10 |  |  |
| 0.001 to 0.1 | COc1cnc(Cl)cc1-c1cc(C)ncc1C(=O)Nc1nc2c(s1)CN(C(=O)c1cnc(C(F)(F)F)c(C)c1C)C2 | ≥ 10 |  |  |
| 0.25 to 0.5 | COc1cnc(Cl)cc1-c1cc(C)ncc1C(=O)Nc1nc2c(s1)CN(C(=O)c1ncc(Cl)c(C(F)F)n1)C2 (racemic) | ≥ 10 |  |  |
| 0.25 to 0.5 | COc1cnc(Cl)cc1-c1cc(C)ncc1C(=O)Nc1nc2c(s1)CN(C(=O)c1ncc(C(F)F)nc1C)C2 (racemic) | ≥ 10 |  |  |
